The target in the assay is T1, HIV-integrase (Human immunodeficiency virus type 1 group M subtype B, UniProt P12497).
T1 construct: Recombinant integrase (0.26 ng) was incubated with the beads
Kind of assay: HIV-Integrase Inhibition Activity (SPA bead strand-transfer assay). It is filed as biochemical. The conditions noted are these: Table 1; read-out: Activity (HIV-integrase inhibition, IC50 class). Here is the method: HIV-Integrase Inhibition Activity. To evaluate in-vitro activity against HIV-integrase, 5 pmole of biotin labeled substrate DNA was bound to 100 μg of Streptavidin coated PVT SPA beads (Amersham Pharmacia Biotech). Recombinant integrase (0.26 ng) was incubated with the beads for 90 min at 37° C. Unbound enzyme was removed by washing the complex followed by addition of inhibitors and 0.1 fmol of P33 labeled target DNA. The reaction was stopped by adding EDTA to a final concentration of 10 mM. Samples were counted in TopCountNXT (Packard) and the CPM was used as a measure of integration. The reaction condition was as described in A. Engelman and R. Craigie, J. Virol 69, 5908-5911 (1995). The sequences of substrate and target DNA were described in Nucleic Acid Research 22, 1121-1122 (1994).
For `CC1(C)OCCn2c1nc(C(=O)NCc1ccccc1-c1ccc(N3CCOCC3)cc1)c(O)c2=O` [Example 168, Pyrimido[2,1-c][1,4]oxazine-2-carboxamide, 4,6,7,9-tetrahydro-3-hydroxy-9,9-dimethyl-N-[[4′-(4-morpholinyl)[1,1′-biphenyl]-2-yl]methyl]-4-oxo-], the IC50 lay in the range of 2 to 100 nM. The same measure for `CC1(C)OCCn2c1nc(C(=O)NCc1cccc(F)c1-n1cncn1)c(O)c2=O` [Example 56, Pyrimido[2,1-c][1,4]oxazine-2-carboxamide, N-[[3-fluoro-2-(1H-1,2,4-triazol-1-yl)phenyl]methyl]-4,6,7,9-tetrahydro-3-hydroxy-9,9-dimethyl-4-oxo-]: 2 to 100 nM; for `CC1(C)OCCn2c1nc(C(=O)NCc1ccccc1-c1ccc(CC#N)cc1)c(O)c2=O` [Example 189, Pyrimido[2,1-c][1,4]oxazine-2-carboxamide, N-[[4′-(cyanomethyl)[1,1′-biphenyl]-2-yl]methyl]-4,6,7,9-tetrahydro-3-hydroxy-9,9-dimethyl-4-oxo-]: 2 to 100 nM; for `COc1cc(CNC(=O)c2nc3n(c(=O)c2O)CCOC3(C)C)ccc1O` [Example 225, Pyrimido[2,1-c][1,4]oxazine-2-carboxamide, 4,6,7,9-tetrahydro-3-hydroxy-N-[(4-hydroxy-3-methoxyphenyl)methyl]-9,9-dimethyl-4-oxo-]: 2 to 100 nM. Take `CC1(C)OCCn2c1nc(C(=O)NCc1ccc(F)cc1C(=O)NC1CC1)c(O)c2=O` [Example 50, Pyrimido[2,1-c][1,4]oxazine-2-carboxamide, N-[[2-[(cyclopropylamino)carbonyl]-4-fluorophenyl]methyl]-4,6,7,9-tetrahydro-3-hydroxy-9,9-dimethyl-4-oxo-]: the IC50 was in the range of 2 to 100 nM. The figure for `Cc1cccc(CNC(=O)c2nc3n(c(=O)c2O)CCOC3(C)C)c1` [Example 223, Pyrimido[2,1-c][1,4]oxazine-2-carboxamide, 4,6,7,9-tetrahydro-3-hydroxy-9,9-dimethyl-N-[(3-methylphenyl)methyl]-4-oxo-] is 2 to 100 nM; for `CC1(C)OCCn2c1nc(C(=O)NCc1ccc(F)cc1C#CCO)c(O)c2=O` [Example 89, Pyrimido[2,1-c][1,4]oxazine-2-carboxamide, N-[[4-fluoro-2-(3-hydroxy-1-propynyl)phenyl]methyl]-4,6,7,9-tetrahydro-3-hydroxy-9,9-dimethyl-4-oxo-] it is 2 to 100 nM; for `COc1cncc(-c2ccccc2CNC(=O)c2nc3n(c(=O)c2O)CCOC3(C)C)c1` [Example 153, Pyrimido[2,1-c][1,4]oxazine-2-carboxamide, 4,6,7,9-tetrahydro-3-hydroxy-N-[[2-(5-methoxy-3-pyridinyl)phenyl]methyl]-9,9-dimethyl-4-oxo-] it is 2 to 100 nM. Consider `CC1(C)OCCn2c1nc(C(=O)NCc1cc(Cl)ccc1Cl)c(O)c2=O` [Example 228, Pyrimido[2,1-c][1,4]oxazine-2-carboxamide, N-[(2,5-dichlorophenyl)methyl]-4,6,7,9-tetrahydro-3-hydroxy-9,9-dimethyl-4-oxo-], for which the IC50 lay within 2 to 100 nM.

As for `CC1(C)OCCn2c1nc(C(=O)NCc1ccc(F)cc1N1CCOCC1)c(O)c2=O` [Example 23, Pyrimido[2,1-c][1,4]oxazine-2-carboxamide, N-[[4-fluoro-2-(4-morpholinyl)phenyl]methyl]-4,6,7,9-tetrahydro-3-hydroxy-9,9-dimethyl-4-oxo-], the IC50 fell in the range of 2 to 100 nM. The same measure for `CC1(C)OCCCn2c1nc(C(=O)NCc1ccc(F)cc1-n1cncn1)c(O)c2=O` [Example 117, 6H-Pyrimido[2,1-c][1,4]oxazepine-2-carboxamide, N-[[4-fluoro-2-(1H-1,2,4-triazol-1-yl)phenyl]methyl]-4,7,8,10-tetrahydro-3-hydroxy-10,10-dimethyl-4-oxo-]: 2 to 100 nM.

`COC(=O)c1ncn(-c2cc(F)ccc2CNC(=O)c2nc3n(c(=O)c2O)CCOC3(C)C)n1` [Example 60, 1H-1,2,4-Triazole-3-carboxylic acid, 1-[5-fluoro-2-[[[(4,6,7,9-tetrahydro-3-hydroxy-9,9-dimethyl-4-oxopyrimido[2,1-c][1,4]oxazin-2-yl)carbonyl]amino]methyl]phenyl], methyl este]: the IC50 lay in the range of 2 to 100 nM. Consider `CC1(C)OCCn2c1nc(C(=O)NCc1ccccc1N1CCC1=O)c(O)c2=O` [Example 123, Pyrimido[2,1-c][1, 4]oxazine-2-carboxamide, 4,6,7,9-tetrahydro-3-hydroxy-9,9-dimethyl-4-oxo-N-[[2-(2-oxo-1-azetidinyl)phenyl]methyl]-], for which the IC50 lay in the range of 2 to 100 nM. The figure for `CC1(C)OCCn2c1nc(C(=O)NCc1ccc(F)cc1-n1cnc(C(=O)N3CCOCC3)n1)c(O)c2=O` [Example 62, Pyrimido[2,1-c][1,4]oxazine-2-carboxamide, N-[[4-fluoro-2-[3-(4-morpholinylcarbonyl)-1H-1,2,4-triazol-1-yl]phenyl]methyl]-4,6,7,9-tetrahydro-3-hydroxy-9,9-dimethyl-4-oxo-] is 2 to 100 nM; for `CN(C)C(=O)c1ccc(-c2ccccc2CNC(=O)c2nc3n(c(=O)c2O)CCOC3(C)C)cc1` [Example 170, Pyrimido[2,1-c][1,4]oxazine-2-carboxamide, N-[[4′-[(dimethylamino)carbonyl][1,1′-biphenyl]-2-yl]methyl]-4,6,7,9-tetrahydro-3-hydroxy-9,9-dimethyl-4-oxo-] it is 2 to 100 nM.

As for `Cn1nnc(-c2cc(F)ccc2CNC(=O)c2nc3n(c(=O)c2O)CCOC3(C)C)n1` [Example 106, Pyrimido[2,1-c][1,4]oxazine-2-carboxamide, N-[[4-fluoro-2-(2-methyl-2H-tetrazol-5-yl)phenyl]methyl]-4,6,7,9-tetrahydro-3-hydroxy-9,9-dimethyl-4-oxo-], the IC50 fell in the range of 2 to 100 nM.

With `Cc1ccc(CNC(=O)c2nc3n(c(=O)c2O)CCOC3(C)C)cc1C` [Example 31, Pyrimido[2,1-c][1,4]oxazine-2-carboxamide, N-[(3,4-dimethylphenyl)methyl]-4,6,7,9-tetrahydro-3-hydroxy-9,9-dimethyl-4-oxo-], the IC50 was 2 to 100 nM. Turning to `CC1(C)OCCn2c1nc(C(=O)NCc1ccc(F)cc1-c1csnn1)c(O)c2=O` [Example 84, Pyrimido[2,1-c][1,4]oxazine-2-carboxamide, N-[[4-fluoro-2-(1,2,3-thiadiazol-4-yl)phenyl]methyl]-4,6,7,9-tetrahydro-3-hydroxy-9,9-dimethyl-4-oxo-], the IC50 lay within 2 to 100 nM.

Regarding `Cc1ccc(Cl)cc1CNC(=O)c1nc2n(c(=O)c1O)CCOC2(C)C` [Example 251, Pyrimido[2,1-c][1,4]oxazine-2-carboxamide, N-[(5-chloro-2-methylphenyl)methyl]-4,6,7,9-tetrahydro-3-hydroxy-9,9-dimethyl-4-oxo-], the IC50 lay in the range of 2 to 100 nM. On to `CC1(C)OCCn2c1nc(C(=O)NCc1ccccc1Br)c(O)c2=O` [Example 147, Pyrimido[2,1-c][1,4]oxazine-2-carboxamide, N-[(2-bromophenyl)methyl]-4,6,7,9-tetrahydro-3-hydroxy-9,9-dimethyl-4-oxo-], for which the IC50 lay within 2 to 100 nM. Regarding `Cc1ncn(-c2ccc(CNC(=O)c3nc4n(c(=O)c3O)CCOC4(C)C)c(F)c2)n1` [Example 83, Pyrimido[2,1-c][1,4]oxazine-2-carboxamide, N-[[2-fluoro-4-(3-methyl-1H-1,2,4-triazol-1-yl)phenyl]methyl]-4,6,7,9-tetrahydro-3-hydroxy-9,9-dimethyl-4-oxo-], the IC50 was more than 1000 nM. The same measure for `CCOc1ccc(-c2ccccc2CNC(=O)c2nc3n(c(=O)c2O)CCOC3(C)C)cn1` [Example 199, Pyrimido[2,1-c][1,4]oxazine-2-carboxamide, N-[[2-(6-ethoxy-3-pyridinyl)phenyl]methyl]-4,6,7,9-tetrahydro-3-hydroxy-9,9-dimethyl-4-oxo-]: 2 to 100 nM. The same measure for `CNC(=O)c1cc(F)ccc1CNC(=O)c1nc2n(c(=O)c1O)CCOC2(C)C` [Example 49, Pyrimido[2,1-c][1,4]oxazine-2-carboxamide, N-[[4-fluoro-2-[(methylamino)carbonyl]phenyl]methyl]-4,6,7,9-tetrahydro-3-hydroxy-9,9-dimethyl-4-oxo-]: 2 to 100 nM; for `COc1ccc(-c2cc(F)ccc2CNC(=O)c2nc3n(c(=O)c2O)CCOC3(C)C)cn1` [Example 77, Pyrimido[2,1-c][1,4]oxazine-2-carboxamide, N-[[4-fluoro-2-(6-methoxy-3-pyridinyl)phenyl]methyl]-4,6,7,9-tetrahydro-3-hydroxy-9,9-dimethyl-4-oxo]: 2 to 100 nM; for `CC(=O)OC[C@H]1CCC(=O)N1c1cc(F)ccc1CNC(=O)c1nc2n(c(=O)c1O)CCOC2(C)C` [Example 129, Pyrimido[2,1-c][1,4]oxazine-2-carboxamide, N-[[2-[(2R)-2-[(acetyloxy)methyl]-5-oxo-1-pyrrolidinyl]-4-fluorophenyl]methyl]-4,6,7,9-tetrahydro-3-hydroxy-9,9-dimethyl-4-oxo-]: 2 to 100 nM.

Take `CC1(C)OCCn2c1nc(C(=O)NCc1ccccc1-c1cnn(Cc3ccccc3)c1)c(O)c2=O` [Example 155, Pyrimido[2,1-c][1,4]oxazine-2-carboxamide, 4,6,7,9-tetrahydro-3-hydroxy-9,9-dimethyl-4-oxo-N-[[2-[1-(phenylmethyl)-1H-pyrazol-4-yl]phenyl]methyl]-]: the IC50 fell in the range of 2 to 100 nM.

For the molecule `CNC(=O)c1cc(F)ccc1CNC(=O)c1nc2n(c(=O)c1O)CCCOC2(C)C` [Example 118, 6H-Pyrimido[2,1-c][1,4]oxazepine-2-carboxamide, N-[[4-fluoro-2-[(methylamino)carbonyl]phenyl]methyl]-4,7,8,10-tetrahydro-3-hydroxy-10,10-dimethyl-4-oxo-], the IC50 was in the range of 2 to 100 nM.

The record behind these values is patent publication US7491819B1 (priority 2004, dated 2009).
